Values quoted from earlier work as cited in patent EP3305282A2, “COMPOSITION OF PRANLUKAST-CONTAINING SOLID PREPARATION WITH IMPROVED BIOAVAILABILITY AND METHOD FOR PREPARING SAME” (Sama Pharm Co., Ltd., priority 2015, dated 2016).

Settings: pranlukast drug substance, BCS Class II

In the case of O=C(Nc1cccc2c(=O)cc(-c3nnn[nH]3)oc12)c1ccc(OCCCCc2ccccc2)cc1 [Pranlukast, 4-oxo-8-[4-(4-phenylbutoxy)benzoylamino]-2-(tetrazol-5-yl)-4H-1-benzopyran hemihydrate], the solubility is given as 1.2 µg/mL.
